Consider two substances from publication PMC6930605, “Matrix Metalloproteinase Triple-Helical Peptide Inhibitors: Potential Cross-Reactivity with Caspase-11” (Molecules, 2019).

Assay [1] relates to caspase-11. In words: Caspase enzyme assay (residual caspase-11 activity). Format: biochemical, mouse.
For assay [2], the target named is MMP-13 (Homo sapiens, UniProt P45452). To be noted: no or weak inhibition of MMP-13; ref [15],[19]; cited from earlier work.
Assay [3] concerns the target T1, MMP-8 (Homo sapiens, UniProt P22894).
T1 construct: purchased R&D Systems
Details: method as in 2 sources, ref [19] = [19]; PMID 28394608; doi:10.1021/acs.jmedchem.7b00018; 19. Bhowmick M. Tokmina-Roszyk D. Onwuha-Ekpete L. Harmon K. Robichaud T. Fuerst R. Stawikowska R. Steffensen B. Roush W.R. Wong H. Second Generation Triple-Helical Peptide Transition State Analog Mat ||| ref [15],[19] = [15]; PMID 17672455; doi:10.1021/ja0715849; 15. Lauer-Fields J.L. Brew K. Whitehead J.K. Li S. Hammer R.P. Fields G.B. Triple-helical transition-state analogs: A new class of selective matrix metalloproteinase inhibitors J. Am. Chem. Soc. 2007 || [19]; PMID 28394608; doi:10.1021/acs.jmedchem.7b00018; 19. Bhowmick M. Tokmina-Roszyk D. Onwuha-Ekpete L. Harmon K. Robichaud T. Fuerst R. Stawikowska R. Steffensen B. Roush W.R. Wong H. Second Generation Triple-Helical Peptide Transition State Analog Mat. The following applies: no or weak inhibition of MMP-8; ref [15],[19]; cited from earlier work.

In assay [4] the target is MMP-3. Details: method as in 2 sources, ref [19] = [19]; PMID 28394608; doi:10.1021/acs.jmedchem.7b00018; 19. Bhowmick M. Tokmina-Roszyk D. Onwuha-Ekpete L. Harmon K. Robichaud T. Fuerst R. Stawikowska R. Steffensen B. Roush W.R. Wong H. Second Generation Triple-Helical Peptide Transition State Analog Mat ||| ref [15],[19] = [15]; PMID 17672455; doi:10.1021/ja0715849; 15. Lauer-Fields J.L. Brew K. Whitehead J.K. Li S. Hammer R.P. Fields G.B. Triple-helical transition-state analogs: A new class of selective matrix metalloproteinase inhibitors J. Am. Chem. Soc. 2007 || [19]; PMID 28394608; doi:10.1021/acs.jmedchem.7b00018; 19. Bhowmick M. Tokmina-Roszyk D. Onwuha-Ekpete L. Harmon K. Robichaud T. Fuerst R. Stawikowska R. Steffensen B. Roush W.R. Wong H. Second Generation Triple-Helical Peptide Transition State Analog Mat. The following applies: no or weak inhibition of MMP-3; ref [15],[19]; cited from earlier work.

The target in assay [5] is T2, MMP-2 (Homo sapiens, UniProt P08253).
T2 construct: Recombinant MMP-2 and MMP-9 catalytic domain were purchased from Sigma-Aldrich; purchased Sigma-Aldrich
T2 sequence (P08253 110-660): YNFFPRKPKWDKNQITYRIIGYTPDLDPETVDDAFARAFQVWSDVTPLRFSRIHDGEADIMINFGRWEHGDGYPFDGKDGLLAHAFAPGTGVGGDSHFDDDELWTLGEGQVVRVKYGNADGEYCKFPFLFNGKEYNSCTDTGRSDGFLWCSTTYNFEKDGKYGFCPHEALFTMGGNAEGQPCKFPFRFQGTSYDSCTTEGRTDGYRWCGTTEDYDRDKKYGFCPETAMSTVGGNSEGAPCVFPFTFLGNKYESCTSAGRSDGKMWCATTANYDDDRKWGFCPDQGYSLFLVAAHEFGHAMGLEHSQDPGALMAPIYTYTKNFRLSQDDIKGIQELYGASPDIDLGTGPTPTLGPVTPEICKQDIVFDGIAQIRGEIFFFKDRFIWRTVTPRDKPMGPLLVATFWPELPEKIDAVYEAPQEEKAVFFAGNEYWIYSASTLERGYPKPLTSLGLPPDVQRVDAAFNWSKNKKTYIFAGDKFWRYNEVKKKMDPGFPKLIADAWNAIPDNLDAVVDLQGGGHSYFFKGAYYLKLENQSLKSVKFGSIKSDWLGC
The following applies: 37 °C; ref [15],[19]; cited from earlier work.

The target in assay [6] is MMP-1. Details: method as in 2 sources, ref [19] = [19]; PMID 28394608; doi:10.1021/acs.jmedchem.7b00018; 19. Bhowmick M. Tokmina-Roszyk D. Onwuha-Ekpete L. Harmon K. Robichaud T. Fuerst R. Stawikowska R. Steffensen B. Roush W.R. Wong H. Second Generation Triple-Helical Peptide Transition State Analog Mat ||| ref [15],[19] = [15]; PMID 17672455; doi:10.1021/ja0715849; 15. Lauer-Fields J.L. Brew K. Whitehead J.K. Li S. Hammer R.P. Fields G.B. Triple-helical transition-state analogs: A new class of selective matrix metalloproteinase inhibitors J. Am. Chem. Soc. 2007 || [19]; PMID 28394608; doi:10.1021/acs.jmedchem.7b00018; 19. Bhowmick M. Tokmina-Roszyk D. Onwuha-Ekpete L. Harmon K. Robichaud T. Fuerst R. Stawikowska R. Steffensen B. Roush W.R. Wong H. Second Generation Triple-Helical Peptide Transition State Analog Mat. To be noted: no or weak inhibition of MMP-1; ref [15],[19]; cited from earlier work.

For assay [7] the following is noted: ref [19]; cited from earlier work.
In assay [8] the target is T3, MMP-9 (Homo sapiens, UniProt P14780).
T3 construct: Recombinant MMP-2 and MMP-9 catalytic domain were purchased from Sigma-Aldrich; purchased Sigma-Aldrich
T3 sequence (P14780 107-444 limits assumed, species assumed): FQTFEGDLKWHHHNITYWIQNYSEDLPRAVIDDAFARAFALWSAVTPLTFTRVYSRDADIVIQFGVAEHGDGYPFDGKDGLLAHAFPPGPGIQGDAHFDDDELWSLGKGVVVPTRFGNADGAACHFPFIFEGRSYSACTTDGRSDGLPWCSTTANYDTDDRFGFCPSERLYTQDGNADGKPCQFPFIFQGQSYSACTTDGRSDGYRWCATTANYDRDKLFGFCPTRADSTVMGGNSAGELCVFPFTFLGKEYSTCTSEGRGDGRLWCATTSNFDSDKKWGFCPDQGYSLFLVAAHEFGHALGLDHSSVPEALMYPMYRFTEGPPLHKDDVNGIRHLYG
The following applies: 37 °C; ref [15],[19]; cited from earlier work.

The target in assay [9] is MT1-MMP. Also on record: method as in 2 sources, ref [19] = [19]; PMID 28394608; doi:10.1021/acs.jmedchem.7b00018; 19. Bhowmick M. Tokmina-Roszyk D. Onwuha-Ekpete L. Harmon K. Robichaud T. Fuerst R. Stawikowska R. Steffensen B. Roush W.R. Wong H. Second Generation Triple-Helical Peptide Transition State Analog Mat ||| ref [15],[19] = [15]; PMID 17672455; doi:10.1021/ja0715849; 15. Lauer-Fields J.L. Brew K. Whitehead J.K. Li S. Hammer R.P. Fields G.B. Triple-helical transition-state analogs: A new class of selective matrix metalloproteinase inhibitors J. Am. Chem. Soc. 2007 || [19]; PMID 28394608; doi:10.1021/acs.jmedchem.7b00018; 19. Bhowmick M. Tokmina-Roszyk D. Onwuha-Ekpete L. Harmon K. Robichaud T. Fuerst R. Stawikowska R. Steffensen B. Roush W.R. Wong H. Second Generation Triple-Helical Peptide Transition State Analog Mat. To be noted: no or weak inhibition of MT1-MMP; ref [15],[19]; cited from earlier work.

T1 sequence (P22894 101-467): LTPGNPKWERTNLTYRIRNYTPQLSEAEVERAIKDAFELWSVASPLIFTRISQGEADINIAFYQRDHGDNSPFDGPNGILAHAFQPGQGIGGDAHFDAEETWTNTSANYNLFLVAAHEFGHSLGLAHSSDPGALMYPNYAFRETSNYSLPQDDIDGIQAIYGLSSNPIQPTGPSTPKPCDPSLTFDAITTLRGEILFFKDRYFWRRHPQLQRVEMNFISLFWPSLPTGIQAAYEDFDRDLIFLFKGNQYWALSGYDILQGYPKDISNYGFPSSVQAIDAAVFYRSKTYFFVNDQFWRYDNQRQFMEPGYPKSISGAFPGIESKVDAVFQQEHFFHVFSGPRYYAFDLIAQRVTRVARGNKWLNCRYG

For the substance “(Gly-Pro-Hyp)4-Gly-mep-Flp-Gly-Pro-Pro-GlyΨ{PO2H-CH2}Val-Val-Gly-Glu-Gln-Gly-Glu-Gln-Gly-Pro-Pro-Gly-mep-Flp-(Gly-Pro-Hyp)4-NH2”, the “inhibition of caspase-11 activity at early time points” value in assay [1] (5 μM inhibitor, 2 h inhibitor pre-incubation (Figure 2), stated to be similar to no pre-incubation) is on record as “no inhibition to occur at early time points”; in [1] (no inhibitor pre-incubation time, data not shown) it was “no inhibition to occur at early time points”. Also, the “change in extent of caspase-11 inhibition over time” value in assay [1] (5 μM inhibitor, 2 h pre-incubation, 1 h monitoring, data not shown) is given as “did not increase after 1 h”. The Ki in assay [2] was 10 to 50 µM; in [3], 10 to 50 µM; in assay [4] it was 10 to 50 µM; in assay [5], 0.00224 µM; in assay [6] it was 10 to 50 µM; in assay [8], 0.00098 µM. Besides, the inhibition constant Ki in assay [9] was 10 to 50 µM. Moreover, the “efficacy in animal model of multiple sclerosis” value in assay [7] was “efficacious in an animal model of multiple sclerosis”.
Regarding “Ac-LEVD-aldehyde (SMILES CC(=O)N[C@@H](CC(C)C)C(=O)N[C@@H](CCC(=O)O)C(=O)N[C@H](C(=O)N[C@H](C=O)CC(=O)O)C(C)C) [reference compound]”, the “inhibition of caspase-11 activity” value in assay [1] (5 μM inhibitor incubated with enzyme 2 h prior to substrate, 3 U/μL (1.08 μM) caspase-11, 250 μM acetyl-Trp-Glu-His-Asp-pNA, pH 6.5, 37 °C, absorbance 405 nm, result in words (up to 15 min)) is “completely inhibit enzymatic activity”.

In general, Ki refers to the equilibrium dissociation constant of an inhibitor or competing ligand from its target.
